{"source": "patent US20220023316A1", "about": "“METHODS FOR THE TREATMENT OF DEPRESSION” (Praxis Precision Medicines, Inc., priority 2018, published 2022)", "key": {"[1]": {"assay": "Safety and tolerability in healthy subjects (Cohorts 1-3)", "type": "in vivo, human", "protocol": "Blood and urine were obtained during each treatment period at designated times for PK and other analyses (see below). Standard safety assessments were measured during each treatment period."}, "[2]": {"system": "severe major depressive disorder (MDD)", "assay": "Open-label study in patients with severe MDD, Part A efficacy (HAM-D)", "type": "in vivo, human", "protocol": "The study is an open-label, study comprised of two dosing periods, Part A and Part B, during which patients were treated with an oral suspension of Compound 1. Part A was an open-label assessment of two dose levels of Compound 1 (45 mg qHS Cohort 1 and 80 mg qHS Cohort, i.e., once daily administration at bedtime) administered for 7 days inpatient followed by 7 days outpatient. PRAX-114 was administered at 4 PM on Day 1 in order to collect post-dosing PK samples that could not be collected with qHS dosing.\n(§1) In Part A, participants were administered daily doses of Compound 1 (45 mg Cohort and 80 mg Cohort) at 4 PM on Day 1 and qHS on all other study days for 7 days inpatient followed by 7 days outpatient (with subsequent Cohorts receiving up to 120 mg qHS). Participants checked into the clinic on Day 1. During this period the following assessments were performed: adverse event assessments, vital signs, physical examinations, blood and urine samples for safety assessments, ECGs, C-SSRS assessments, blood samples for PK, and efficacy assessments (HAM-D, MADRS, HAM-A, CGI [CGI-S and CGI-I], PSQI, and SDQ). Baseline assessments occurred on Day 1 prior to administration of study drug. On Day 8, prior to discharge, participants were supplied with sufficient Compound 1 to complete 7 days of dosing.\nPatients were administered daily doses of Compound 1 for 7 days inpatient followed by 7 days outpatient.\nIn the 45 mg Cohort, patients were administered once daily dose of 45 mg of Compound 1 at bedtime for 7 days inpatient followed by once daily dose of 45 mg of Compound 1 at bedtime for 7 days outpatient.\nIn the 80 mg Cohort, patients were administered once daily dose of 80 mg of Compound 1 at bedtime for 7 days inpatient followed by once daily dose of 80 mg of Compound 1 at bedtime for 7 days outpatient.\nPart A: In Part A, HAM-D, MADRS, HAM-A, CGI-S, and CGI-I values were collected in the morning of Days 1, 2, 3, 4, 5, 6, 7, 8, 15, 21 and 28. PSQI and SDQ values will be collected on Days 1, 8, 15, 21 and 28. Part B: In Part B, HAM-D, MADRS, HAM-A, CGI-S, CGI-I, PSQI and SDQ values will be collected on the days described for Part A.\nHAM-D Response was defined as a reduction from baseline of >50% in total HAM-D score. HAM-D remission was defined as a total HAM-D score of <7.\nEfficacy analysis: For both parts of the clinical trial, the HAM-D total score and change from baseline values will be summarized by treatment group and time point. In addition, the change from baseline in HAM-D total score will also be analyzed using paired t-tests or similar methods. The null hypothesis of this test is that the mean difference in HAM-D total score between paired observations (i.e., pre- and post-treatment) is zero. Similar analysis methods will be used for all secondary and exploratory efficacy variables."}, "[3]": {"assay": "Safety and tolerability in MDD patients, Part A", "type": "in vivo, human", "settings": "80 mg Cohort", "protocol": "as §1\nAdverse events (AEs) will be monitored throughout the duration of the study."}, "[4]": {"settings": "human, in vivo", "experimental": "(§2) Healthy subjects aged 18 to 55 years were treated with an oral suspension of Compound 1 to study the safety, tolerability, pharmacokinetics and pharmacodynamics of Compound 1 in healthy subjects.\n(§3) The study was a randomized, double-blind, placebo-controlled multiple escalating dose study comprised of 3 cohorts that each received an oral suspension. Each cohort consisted of two groups: one group treated with Compound 1 and another treated with placebo. In each cohort, the ratio of Compound 1-treated subjects to placebo-treated subjects was 3:1.\n(§4) The Compound 1-treated subjects of Cohort 1 were treated with 15.0 mg of Compound 1 once per day (QD). The Compound 1-treated subjects of Cohort 2 were treated with 30.0 mg of Compound 1 QD. The Compound 1-treated subjects of Cohort 3 were treated with 60.0 mg of Compound 1 QD.\n(§5) Patients in each cohort were treated with Compound 1 for 14 consecutive days, unless dosing was halted by the Safety Review Committee (SRC). The dosing of subjects in each of the cohorts was staggered with the decision to dose escalate based on SRC review of a minimum of 14 days of observation of safety and tolerability data and review of the available plasma PK data from the preceding cohort(s).\n(§6) Compound 1 was administered under fasted conditions (no food or drink, except water, for at least 10 hours prior to dosing). Immediately after administration of Compound 1, the subject was be administered 240 mL water. No additional fluid intake was allowed until 1 hour after Compound 1 administration.\n(§7) Cohort 1 subjects received a single 15.0 mg dose of a Compound 1 suspension on the morning of Days 1-14. Cohort 2 subjects received a single 30.0 mg dose of a Compound 1 suspension on the morning of Days 1-14. Cohort 3 subjects received a single 60.0 mg dose of a Compound 1 suspension on the morning of Days 1-14. For all cohorts, the last treatment was administered on the morning of Day 14.\n(§8) PK parameters (e.g., Cmax, Tmax, T1/2, AUC, etc.) for healthy patients in each cohort was compared to assess the suitability of Compound 1 suspension for the treatment of MDD. Data were obtained from the blood plasma samples collected from each cohort according to the schedule provided.\n(§9) Plasma samples were analyzed to determine Compound 1 concentrations using a validated assay method. Pharmacokinetic variables (including but not limited to Cmax, Tmax and AUC(0-last)), were calculated using non-compartmental analysis. PK parameters for Compound 1 were derived from the plasma concentration data using non-compartmental analysis with Phoenix™ WinNonlin® v 8.0 (Pharsight Corporation, USA).\n(§10) Blood (Cohorts 1-3): For each cohort, blood samples were collected on Days 1, 2, 3, 4, 5, 6 and 14 at the following time points: Day 1 at pre-dose (0 hour), 0.25, 0.5, 0.75, 1, 1.5, 2, 2.5, 3, 4, 6, 8, 12, 16 h post-dose; Day 2 at pre-dose (24 h), Day 3 at pre-dose (48 h), Day 4 at pre-dose (72 h), Day 5 at pre-dose (96 h), Day 6 at pre-dose (120 h); Day 14 at pre-dose 0.25, 0.5, 0.75, 1, 1.5, 2, 2.5, 3, 4, 6, 8, 12, 16, 24, 36, 48, and 72 hours. Trough level blood samples were collected on Days 2, 3, 4, 5, 6 and 14, prior to the morning dose administrations.\n(§11) Descriptive statistics were calculated for plasma and urine PK parameter and concentration data, and summarized by study day and time point. Arithmetic means, coefficient of variation (CV), standard deviation, median, minimum, and maximum values, and number of observations were calculated for all PK parameters and trough concentration data. Except for Tmax, the geometric mean, geometric standard deviation, and geometric CV were provided for all PK parameter and concentration data."}, "[5]": {"settings": "human, in vivo, 30 mg", "experimental": "(§12) A Food Effect Cohort (Cohort 4) was conducted to assess the effect of food on the PK profile of a single dose of Compound 1 when administered to healthy subjects. The subjects of Cohort 4 were treated with 30 mg of Compound 1 QD.\n(§13) Cohort 4 subjects received a single 30 mg dose of a Compound 1 suspension on Days 1 and 5. The Day 1 dose was administered after a minimum of 10 hour fasting. No additional fluid intake was allowed until 1 hour after drug administration. A standard meal was given at least 4 hours post-dose. The Day 5 dose was administered following a high-fat, high calorie meal. Participants remained at the clinical site for a total of 8 days to complete PK sampling after the second dose.\nas §9\n(§14) Urine (Cohort 4): No urine analysis was conducted in Cohort 4."}, "[6]": {"assay": "Food Effect Cohort (Cohort 4) PK, single 30 mg dose fasted vs fed", "settings": "healthy subjects", "experimental": "as §12, §13, §9, §14"}, "[7]": {"assay": "Multiple escalating dose PK study of oral suspension in healthy subjects (Cohorts 1-3)", "settings": "for t1/2: Day 14 steady state", "experimental": "as §2, §3, §4, §5, §6, §7, §8, §9, §10, §11"}, "[8]": {"settings": "Cohorts 1-3, 15-60 mg QD for 14 days"}}}
{"smiles": "COC[C@@]1(O)CC[C@@]2(C)[C@@H](CC[C@@H]3[C@@H]2CC[C@]2(C)[C@@H](C(=O)Cn4ccnc4)CC[C@@H]32)C1", "note": "[Compound 1, 3α-Hydroxy-3β-methoxymethyl-21-(1′-imidazolyl)-5α-pregnan-20-one]", "values": [{"measurement": "Serious Adverse Events", "setting": "[1]; [8]", "value": "no Serious Adverse Events"}, {"measurement": "clinically relevant vital sign, ECG, or lab abnormalities", "setting": "[1]; [8]", "value": "no clinically relevant vital sign, ECG, or lab abnormalities"}, {"measurement": "elevated mood", "setting": "[1]; doses of 30 mg and 60 mg QD", "value": "several subjects experienced elevated mood"}, {"measurement": "patients meeting HAM-D Response or Remission criterion", "setting": "[2]; 45 mg Cohort (45 mg qHS), Day 7, 13 patients", "value": "11 of the 13"}, {"measurement": "patients meeting HAM-D Response or Remission criteria", "setting": "[2]; 45 mg Cohort (45 mg qHS), Day 15, 13 patients", "value": "8 of the 13"}, {"measurement": "least squares Mean Change from Baseline in HAM-D score", "setting": "[2]; 80 mg Cohort (80 mg qHS), Day 7", "value": "−20.0"}, {"measurement": "least squares Mean Change from Baseline in HAM-D score", "setting": "[2]; 80 mg Cohort (80 mg qHS), Day 15", "value": "−16.0"}, {"measurement": "patients meeting HAM-D Response or Remission criteria", "setting": "[2]; 80 mg Cohort (80 mg qHS), Day 15, 7 patients", "value": "6 of the 7"}, {"measurement": "Efficacy (reduction Mean Change from Baseline in HAM-D score)", "setting": "[2]; as monotherapy and in combination with another antidepressant", "value": "observed"}, {"measurement": "symptoms of MDD", "setting": "[2]; daily dose of 45 mg or 80 mg, oral suspension, MDD patients", "value": "reduced symptoms of moderate to severe MDD"}, {"measurement": "Efficacy (reduction Mean Change from Baseline in HAM-D score)", "setting": "[2]; patients undergoing first course of antidepressant treatment and patients that failed previous courses", "value": "observed"}, {"measurement": "Adverse Event profile compared to the 45 mg Cohort", "setting": "[3]", "value": "no change in Adverse Event profile"}, {"measurement": "tolerability of the dose", "setting": "[3]", "value": "well tolerated"}, {"measurement": "increase in Cavg, AUCss and AUCinf with dose", "setting": "[4]", "value": "proportional increase"}, {"measurement": "increase in Cmax and AUC parameters at steady state with dose", "setting": "[4]", "value": "approximate proportional increase"}, {"measurement": "Cmax higher under fasting conditions compared to fed", "setting": "[5]", "value": "1.5-1.6 times"}, {"measurement": "Tmax under fasting compared to fed conditions", "setting": "[5]", "value": "tendency for a shorter Tmax"}, {"measurement": "AUCinf", "setting": "[5]; po", "value": "602.3 (304.84) h · ng/mL"}, {"measurement": "t1/2", "setting": "[6]; Fed (Day 1) n =10 as head prints, single 30 mg oral suspension after high-fat, high calorie meal, Mean (SD)", "value": "11.26 (0.8641) h"}, {"measurement": "t1/2 fasted versus fed", "setting": "[6]; single 30 mg dose", "value": "similar"}, {"measurement": "t1/2", "setting": "[7]; Cohort 1, 15.0 mg QD oral suspension, Geo Mean", "value": 14.613, "unit": "h"}, {"measurement": "t1/2", "setting": "[7]; Cohort 1, 15.0 mg QD oral suspension, Mean", "value": "14.77 ± 2.26", "unit": "h"}, {"measurement": "t1/2", "setting": "[7]; Cohort 1, 15.0 mg QD oral suspension, Median", "value": 15.26, "unit": "h"}, {"measurement": "t1/2", "setting": "[7]; Cohort 2, 30.0 mg QD oral suspension, Geo Mean", "value": 12.647, "unit": "h"}, {"measurement": "t1/2", "setting": "[7]; Cohort 2, 30.0 mg QD oral suspension, Mean", "value": "12.70 ± 1.23", "unit": "h"}, {"measurement": "t1/2", "setting": "[7]; Cohort 2, 30.0 mg QD oral suspension, Median", "value": 12.90, "unit": "h"}, {"measurement": "Cmax", "setting": "[7]; Cohort 2, 30.0 mg QD oral suspension, fasted, Day 1, Geometric Mean", "value": 120.018, "unit": "ng/mL"}, {"measurement": "accumulation factor of the dosing interval (ratio of AUCDay14/AUCDay1)", "setting": "[7]; Cohort 3, 60.0 mg QD", "value": 0.89}, {"measurement": "t1/2", "setting": "[7]; Cohort 3, 60.0 mg QD oral suspension, Geo Mean", "value": 12.164, "unit": "h"}, {"measurement": "t1/2", "setting": "[7]; Cohort 3, 60.0 mg QD oral suspension, Mean", "value": "12.23 ± 1.32", "unit": "h"}, {"measurement": "t1/2", "setting": "[7]; Cohort 3, 60.0 mg QD oral suspension, Median", "value": 12.42, "unit": "h"}]}
